Test results from patent publication US10954252B1, “Inhibitors of human immunodeficiency virus replication” (ViiV HEALTHCARE UK (NO.5) LIMITED, priority 2017, dated 2021).

Assays:
[1] = Compound cytotoxicity, XTT-based colorimetric assay; type: cell-based; details: human, uninfected MT2 cells
Outline: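 XTT colorimetric read-out on day 4 gave CC50 values, using MT2 cells left uninfected but otherwise handled as in the antiviral assay.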

[2] = system: recombinant NL4-3 virus (nef section replaced with Renilla luciferase gene) in MT-2 cells; assay: HIV cell culture assay (antiviral activity, luciferase readout); type: cell-based; details: MT-2 cells infected for 4-5 days with recombinant NL4-3 luciferase virus
Outline: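 Serially diluted compounds were present throughout a 4-5 day infection of MT-2 cells by recombinant NL4-3 whose nef region partly encodes Renilla luciferase. Antiviral activity was taken from live-cell luciferase signal, with the 50% effective concentration fitted by the exponential median effect equation.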

| SMILES | CC50 at 4 days ([1]; Table 1a, day 4, XTT) | EC50 ([2]; Renilla, NL43, Table 1a) | CC50 at 4 days ([1]; Table 1, day 4, XTT) | EC50 ([2]; Renilla, NL43, Table 1) | EC50 ([2]; Table 1a) |
| --- | --- | --- | --- | --- | --- |
| CC(C)c1ccc(-c2cc3[nH]ccc3nc2[C@H](Cc2cc(F)cc(F)c2)NC(=O)Cn2nc(C(F)F)c3c2C(F)(F)[C@@H]2C[C@H]32)cn1 [Example 81, 2-((3bS,4aR)-3-(difluoromethyl)-5,5-difluoro-3b,4,4a,5-tetrahydro-1H-cyclopropa[3,4]cyclopenta[1,2-c]pyrazol-1-yl)-N—((S)-2-(3,5-difluorophenyl)-1-(6-(6-isopropylpyridin-3-yl)-1H-pyrrolo[3,2-b]pyridin-5-yl)ethyl)acetamide] | 10000 nM | 13.6 nM |  |  |  |
| CC(C)n1nc(NS(C)(=O)=O)c2c(Cl)ccc(-n3c(C(Cc4cc(F)cc(F)c4)NC(=O)Cn4nc(C(F)F)c5c4C(F)(F)[C@@H]4C[C@H]54)nc4ncccc4c3=O)c21 (mixture of isomers) [Example 43.1] | > 10000 nM | 30 nM |  |  |  |
| O=C(Cn1nc(C(F)F)c2c1C(F)(F)[C@@H]1C[C@H]21)NC(Cc1cc(F)cc(F)c1)c1nc2cc[nH]c2cc1-c1ccc2c(c1)C(=O)NC2 (stereo partly drawn) [Example 61, 2-((3bS,4aR)-3-(difluoromethyl)-5,5-difluoro-3b,4,4a,5-tetrahydro-1H-cyclopropa[3,4]cyclopenta[1,2-c]pyrazol-1-yl)-N-(2-(3,5-difluorophenyl)-1-(6-(3-oxoisoindolin-5-yl)-1H-pyrrolo[3,2-b]pyridin-5-yl)ethyl)acetamide] | > 10000 nM | 4.51 nM |  |  |  |
| COc1ccc(-n2c([C@H](Cc3cc(F)cc(F)c3)NC(=O)Cc3c[nH]c4ccc(O)cc34)nc3ncccc3c2=O)cc1 [Example 9.2, (S)—N-(2-(3,5-difluorophenyl)-1-(3-(4-methoxyphenyl)-4-oxo-3,4-dihydropyrido[2,3-d]pyrimidin-2-yl)ethyl)-2-(5-hydroxy-1H-indol-3-yl)acetamide] |  |  | > 10000 nM | 4.7 nM |  |
| O=C(Cn1nc(C(F)F)c2c1C(F)(F)[C@@H]1C[C@H]21)N[C@@H](Cc1cc(F)cc(F)c1)c1nc2cn[nH]c2cc1-c1cccc2c1CNC2=O [Example 10.13, 2-((3bS,4aR)-3-(difluoromethyl)-5,5-difluoro-3b,4,4a,5-tetrahydro-1H-cyclopropa[3,4]cyclopenta[1,2-c]pyrazol-1-yl)-N—((S)-2-(3,5-difluorophenyl)-1-(6-(1-oxoisoindolin-4-yl)-1H-pyrazolo[4,3-b]pyridin-5-yl)ethyl)acetamide] |  |  | > 10000 nM | 12 nM |  |
| CN1CCN(S(=O)(=O)c2ccc(-c3cc4[nH]ncc4nc3[C@H](Cc3cc(F)cc(F)c3)NC(=O)Cn3nc(C(F)F)c4c3C(F)(F)[C@@H]3C[C@H]43)cc2)CC1 [Example 28, 2-((3bS,4aR)-3-(difluoromethyl)-5,5-difluoro-3b,4,4a,5-tetrahydro-1H-cyclopropa[3,4]cyclopenta[1,2-c]pyrazol-1-yl)-N—((S)-2-(3,5-difluorophenyl)-1-(6-(4-((4-methylpiperazin-1-yl)sulfonyl)phenyl)-1H-pyrazolo[4,3-b]pyridin-5-yl)ethyl)acetamide] | > 10000 nM | 19.9 nM |  |  |  |
| Cc1ccc2c(=O)n(-c3ccc(Cl)c4c(NS(C)(=O)=O)nn(C)c34)c([C@H](Cc3cc(F)cc(F)c3)NC(=O)Cn3nc(C(F)F)c4c3C(F)(F)[C@@H]3C[C@H]43)nc2n1 (mixture of isomers) [Example 41.2, N-[(1S)-1-[3-(4-chloro-3-methanesulfonamido-1-methyl-1H-indazol-7-yl)-7-methyl-4-oxo-3H,4H-pyrido[2,3-d]pyrimidin-2-yl]-2-(3,5-difluorophenyl)ethyl]-2-[(2S,4R)-9-(difluoromethyl)-5,5-difluoro-7,8-diazatricyclo[4.3.0.0^2,4]nona-1(6),8-dien-7-yl]acetamide] | > 10000 nM | 0.022 nM |  |  |  |
| N#Cc1ccc(-c2cc3[nH]ncc3nc2[C@H](Cc2cc(F)cc(F)c2)NC(=O)Cn2nc(C(F)F)c3c2C(F)(F)[C@@H]2C[C@H]32)cc1 [Example 10.5, N—((S)-1-(6-(4-cyanophenyl)-1H-pyrazolo[4,3-b]pyridin-5-yl)-2-(3,5-difluorophenyl)ethyl)-2-((3bS,4aR)-3-(difluoromethyl)-5,5-difluoro-3b,4,4a,5-tetrahydro-1H-cyclopropa[3,4]cyclopenta[1,2-c]pyrazol-1-yl)acetamide] |  |  | 9350 nM | 300 nM |  |
| COc1cccc2nc([C@H](Cc3cc(F)cc(F)c3)NC(=O)Cn3nc(C(F)F)c4c3C(F)(F)[C@@H]3C[C@H]43)n(-c3ccc(Cl)c4c(NS(C)(=O)=O)nn(C)c34)c(=O)c12 (mixture of isomers) [Example 169, N—((S)-1-(3-(4-chloro-1-methyl-3-(methylsulfonamido)-1H-indazol-7-yl)-5-methoxy-4-oxo-3,4-dihydroquinazolin-2-yl)-2-(3,5-difluorophenyl)ethyl)-2-((3bS,4aR)-3-(difluoromethyl)-5,5-difluoro-3b,4,4a,5-tetrahydro-1H-cyclopropa[3,4]cyclopenta[1,2-c]pyrazol-1-yl)acetamide] | > 1000 nM |  |  |  | 119 nM |
| O=C(Cc1c[nH]c2ccc(O)cc12)N[C@@H](Cc1cc(F)cc(F)c1)c1nc2ncccc2c(=O)n1-c1ccc2scnc2c1 [Example 10.23] |  |  | > 10000 nM | 2.7 nM |  |
| CS(=O)(=O)Nc1n[nH]c2c(-c3cc4[nH]ccc4nc3[C@H](Cc3cc(F)cc(F)c3)NC(=O)Cn3nc(C(F)F)c4c3C(F)(F)[C@@H]3C[C@H]43)ccc(Cl)c12 [Example 90, N—((S)-1-(6-(4-chloro-3-(methylsulfonamido)-1H-indazol-7-yl)-1H-pyrrolo[3,2-b]pyridin-5-yl)-2-(3,5-difluorophenyl)ethyl)-2-((3bS,4aR)-3-(difluoromethyl)-5,5-difluoro-3b,4,4a,5-tetrahydro-1H-cyclopropa[3,4]cyclopenta[1,2-c]pyrazol-1-yl)acetamide] | > 10000 nM | 1.48 nM |  |  |  |
| Cc1cc(F)c2c(=O)n(-c3ccc(Cl)c4c(NS(C)(=O)=O)nn(C)c34)c(C(Cc3cc(F)cc(F)c3)NC(=O)Cn3nc(C(F)F)c4c3C(F)(F)[C@@H]3C[C@H]43)nc2c1 (mixture of isomers) [Example 171, N—((S)-1-(3-(4-chloro-1-methyl-3-(methylsulfonamido)-1H-indazol-7-yl)-5-fluoro-7-methyl-4-oxo-3,4-dihydroquinazolin-2-yl)-2-(3,5-difluorophenyl)ethyl)-2-((3bS,4aR)-3-(difluoromethyl)-5,5-difluoro-3b,4,4a,5-tetrahydro-1H-cyclopropa[3,4]cyclopenta[1,2-c]pyrazol-1-yl)acetamide] | > 1000 nM | 3.96 nM |  |  |  |
| Cc1cccc2nc([C@H](Cc3cc(F)cc(F)c3)NC(=O)Cn3nc(C(F)F)c4c3C(F)(F)[C@@H]3C[C@H]43)n(-c3ccc(Cl)c4c(NS(C)(=O)=O)nn(C)c34)c(=O)c12 (single isomer, unassigned) [Example 125] | > 1000 nM |  |  |  | 63.9 nM |
| N#Cc1cccc(-c2cc3[nH]ncc3nc2[C@H](Cc2cc(F)cc(F)c2)NC(=O)Cn2nc(C(F)F)c3c2C(F)(F)[C@@H]2C[C@H]32)c1 [Example 10.2, N—((S)-1-(6-(3-cyanophenyl)-1H-pyrazolo[4,3-b]pyridin-5-yl)-2-(3,5-difluorophenyl)ethyl)-2-((3bS,4aR)-3-(difluoromethyl)-5,5-difluoro-3b,4,4a,5-tetrahydro-1H-cyclopropa[3,4]cyclopenta[1,2-c]pyrazol-1-yl)acetamide] |  |  | 9700 nM | 460 nM |  |
| Cn1nc(NS(C)(=O)=O)c2c(Cl)ccc(-n3c([C@H](Cc4cc(F)cc(F)c4)NC(=O)Cc4n[nH]c5ccc(O)cc45)nc4ncccc4c3=O)c21 (single isomer, unassigned) [Example 49.1] | > 1000 nM | 93 nM |  |  |  |
| NC(=O)c1cc(-c2cc3[nH]ncc3nc2[C@H](Cc2cc(F)cc(F)c2)NC(=O)Cn2nc(C(F)F)c3c2C(F)(F)[C@@H]2C[C@H]32)ccc1Cl [Example 10.3, 2-Chloro-5-(5-((S)-1-(2-((3bS,4aR)-3-(difluoromethyl)-5,5-difluoro-3b,4,4a,5-tetrahydro-1H-cyclopropa[3,4]cyclopenta[1,2-c]pyrazol-1-yl)acetamido)-2-(3,5-difluorophenyl)ethyl)-1H-pyrazolo[4,3-b]pyridin-6-yl)benzamide] |  |  | > 10000 nM | 84 nM |  |
| O=C(Cn1nc(C(F)F)c2c1C(F)(F)[C@@H]1C[C@H]21)N[C@@H](Cc1cc(F)cc(F)c1)c1nc2ncccc2c(=O)n1-c1ccc(OC(F)F)cc1 [Example 30, N-[(1S)-1-{3-[4-(difluoromethoxy)phenyl]-4-oxo-3H,4H-pyrido[2,3-d]pyrimidin-2-yl}-2-(3,5-difluorophenyl)ethyl]-2-[(2S,4R)-9-(difluoromethyl)-5,5-difluoro-7,8-diazatricyclo[4.3.0.0^2,4]nona-1(6),8-dien-7-yl]acetamide] | 3160 nM | 5.03 nM |  |  |  |
| Cn1nc(NS(C)(=O)=O)c2c(Cl)ccc(-c3cc4[nH]ncc4nc3[C@H](Cc3cc(F)cc(F)c3)NC(=O)Cc3c[nH]c4ccc(O)cc34)c21 [Example 10.22] |  |  | > 10000 nM | 22 nM |  |
| Cn1nc(NS(C)(=O)=O)c2c(Cl)ccc(-n3c([C@H](Cc4cc(F)cc(F)c4)NC(=O)Cn4nc(C(F)F)c5c4C(F)(F)[C@@H]4C[C@H]54)nc4ccc(Cl)c(F)c4c3=O)c21 (mixture of isomers) [Example 175, N—((S)-1-(6-chloro-3-(4-chloro-1-methyl-3-(methylsulfonamido)-1H-indazol-7-yl)-5-fluoro-4-oxo-3,4-dihydroquinazolin-2-yl)-2-(3,5-difluorophenyl)ethyl)-2-((3bS,4aR)-3-(difluoromethyl)-5,5-difluoro-3b,4,4a,5-tetrahydro-1H-cyclopropa[3,4]cyclopenta[1,2-c]pyrazol-1-yl)acetamide] | > 1000 nM | 10.9 nM |  |  |  |
